Molecules are shown by their SMILES.

The source of these data is patent US11655243B2, “Pyridine and pyrazine derivatives as preferential cannabinoid 2 agonists” (HOFFMANN-LA ROCHE INC., priority 2018, dated 2023).

In this test the target is human CNR2 receptors (CB2 receptor) (Homo sapiens (Human), UniProt P34972). Description: Radioligand binding assay, human CB2 (CNR2). As to conditions: membranes of HEK cells expressing human CNR2, 2.6 nM [3H]-CP-55,940 radioligand; read-out: Binding assay human CB2 Ki. The procedure: Radioligand Binding Assay
Sequence of human CNR2 receptors (CB2 receptor) (P34972 whole entry): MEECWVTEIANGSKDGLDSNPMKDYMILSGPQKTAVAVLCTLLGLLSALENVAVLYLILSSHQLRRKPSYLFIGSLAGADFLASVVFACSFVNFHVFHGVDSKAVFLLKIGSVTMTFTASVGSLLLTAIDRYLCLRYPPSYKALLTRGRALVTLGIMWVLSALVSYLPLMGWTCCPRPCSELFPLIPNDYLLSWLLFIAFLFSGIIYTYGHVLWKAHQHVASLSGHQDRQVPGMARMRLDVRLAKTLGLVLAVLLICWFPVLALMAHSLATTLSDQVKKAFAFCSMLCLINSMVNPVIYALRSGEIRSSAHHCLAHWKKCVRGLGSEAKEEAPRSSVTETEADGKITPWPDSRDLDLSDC
The affinity of the compounds of the invention for cannabinoid CB1 receptors was determined using recommended amounts of membrane preparations (PerkinElmer) of human embryonic kidney (HEK) cells expressing the human CNR1 or CNR2 receptors in conjunction with 1.5 or 2.6 nM [3H]-CP-55,940 (Perkin Elmer) as radioligand, respectively. Binding was performed in binding buffer (50 mM Tris, 5 mM MgCl2, 2.5 mM EDTA, and 0.5% (wt/vol) fatty acid free BSA, pH 7.4 for CB1 receptor and 50 mM Tris, 5 mM MgCl2, 2.5 mM EGTA, and 0.1% (wt/vol) fatty acid free BSA, pH 7.4 for CB2 receptor) in a total volume of 0.2 ml for 1 h at 30° C. shaking. The reaction was terminated by rapid filtration through microfiltration plates coated with 0.5% polyethylenimine (UniFilter GFB filter plate; Packard). Bound radioactivity was analyzed for Ki using nonlinear regression analysis (Activity Base, ID Business Solution, Limited), with the Kd values for [3H]CP55,940 determined from saturation experiments. The compounds of formula (I) show an excellent affinity for the CB2 receptor.
The compounds according to formula (I) have an activity in the above assay (Ki) between 0.5 nM and 10 μM. Particular compounds of formula (I) have an activity in the above assay (Ki) between 0.5 nM and 3 μM. Other particular compounds of formula (I) have an activity in the above assay (Ki) between 0.5 nM and 100 nM.
As for `CCC(CC)(NC(=O)c1ccc(N2CC(OC)C2)c(OC[C@@H]2C[C@H]2CO)n1)C(=O)OCCCF` [Example 16, 3-Fluoropropyl 2-ethyl-2-{[6-{[(1R,2R)-2-(hydroxymethyl)cyclopropyl]methoxy}-5-(3-methoxyazetidin-1-yl)pyridine-2-carbonyl]amino}butanoate], the Ki (commonly the equilibrium dissociation constant of an inhibitor or competing ligand from its target) was found to be 18.8 nM. `COC1CN(c2ccc(C(=O)N[C@H](COCCF)CC(C)C)nc2OCC2COC2)C1` [Example 17, N-[(2S)-1-(2-Fluoroethoxy)-4-methylpentan-2-yl]-5-(3-methoxyazetidin-1-yl)-6-[(oxetan-3-yl)methoxy]pyridine-2-carboxamide]: the Ki is 331 nM. As for `CC(C)C[C@@H](COCCF)NC(=O)c1ccc(N2CCCC2)c(OCC2COC2)n1` [Example 18, N-[(2S)-1-(2-Fluoroethoxy)-4-methylpentan-2-yl]-6-[(oxetan-3-yl)methoxy]-5-(pyrrolidin-1-yl)pyridine-2-carboxamide], the figure is 21 nM; as for `[2H]C([2H])(F)C([2H])([2H])C([2H])([2H])OC(=O)C(CC)(CC)NC(=O)c1ccc(N2CC(OC)C2)c(OC[C@H]2C[C@@H]2CO)n1` [Example 19, (1,1,2,2,3,3-Hexadeuterio-3-fluoro-propyl) 2-ethyl-2-[[6-[[(1S,2S)-2-(hydroxymethyl)cyclopropyl]methoxy]-5-(3-methoxyazetidin-1-yl)pyridine-2-carbonyl]amino]butanoate], 0.8 nM. To `C=CC(C=C)(NC(=O)c1ccc(N2CC(OC)C2)c(OC[C@H]2C[C@@H]2CO)n1)C(=O)OCCCF` [Example 20, 3-Fluoropropyl 2-[6-[[(1S,2S)-2-(hydroxymethyl)cyclopropyl]methoxy]-5-(3-methoxyazetidin-1-yl)pyridine-2-carbonylamino]-2-vinyl-but-3-enoate] belongs 525 nM; to `CCC(CC)(NC(=O)c1ccc(N2CC(OC)C2)c(OC[C@H]2C[C@@H]2CO)n1)C(=O)OCCCOS(=O)(=O)c1ccc(C)cc1` [Example 23, 3-(p-Tolylsulfonyloxy)propyl 2-ethyl-2-[[6-[[(1S,2S)-2-(hydroxymethyl)cyclopropyl]methoxy]-5-(3-methoxyazetidin-1-yl)pyridine-2-carbonyl]amino]butanoate], 21.6 nM; to `[2H]C([2H])(OC(=O)C(CC)(CC)NC(=O)c1ccc(N2CC(OC)C2)c(OC[C@H]2C[C@@H]2CO)n1)C([2H])([2H])C([2H])([2H])OS(=O)(=O)c1ccc(C)cc1` [Example 24, [1,1,2,2,3,3-Hexadeuterio-3-(p-tolylsulfonyloxy)propyl] 2-ethyl-2-[[6-[[(1S,2S)-2-(hydroxymethyl)cyclopropyl]methoxy]-5-(3-methoxyazetidin-1-yl)pyridine-2-carbonyl]amino]butanoate], 65.5 nM. To `CCC(CC)(NC(=O)c1ccc(N2CC(OC)C2)c(OC[C@H]2C[C@@H]2CO)n1)C(=O)N[C@H](CO)CC(C)C` [Example 26, N-[1-Ethyl-1-[[(1S)-1-(hydroxymethyl)-3-methyl-butyl]carbamoyl]propyl]-6-[[(1S,2S)-2-(hydroxymethyl)cyclopropyl]methoxy]-5-(3-methoxyazetidin-1-yl)pyridine-2-carboxamide] belongs 130 nM; to `CCC(CC)(NC(=O)c1ccc(N2CC(OC)C2)c(OC[C@H]2C[C@@H]2COCc2ccccc2)n1)C(=O)OCCCF` [Example 32, 3-Fluoropropyl 2-[[6-[[(1S,2S)-2-(benzyloxymethyl)cyclopropyl]methoxy]-5-(3-methoxyazetidin-1-yl)pyridine-2-carbonyl]amino]-2-ethyl-butanoate], 246 nM. As for `CCC(CC)(NC(=O)c1ccc(N2CCCC2)c(OCC2(CO)COC2)n1)C(=O)OCF` [Example 33, Fluoromethyl 2-ethyl-2-[[6-[[3-(hydroxymethyl)oxetan-3-yl]methoxy]-5-pyrrolidin-1-yl-pyridine-2-carbonyl]amino]butanoate], the Ki turned out to be 348 nM.

Take `CCC(CC)(NC(=O)c1ccc(N2CCCC2)c(OCC2(CO)COC2)n1)C(=O)OCCF` [Example 34, 2-Fluoroethyl 2-ethyl-2-(6-((3-(hydroxymethyl)oxetan-3-yl)methoxy)-5-(pyrrolidin-1-yl)picolinamide)butanoate]: the Ki came out at 607 nM. To `CCC(CC)(NC(=O)c1ccc(N2CCCC2)c(OCC2(CO)COC2)n1)C(=O)OCCCF` [Example 35, 3-Fluoropropyl 2-ethyl-2-(6-((3-(hydroxymethyl)oxetan-3-yl)methoxy)-5-(pyrrolidin-1-yl)picolinamido)butanoate] belongs 1390 nM.
